Laboratory results published in patent publication US20080207722A1, “Glepp-1 Inhibitors in the Treatment of Autoimmune and/or Inflammatory Disorders” (LABORATORIES SERONO SA, priority 2005, published 2008).
Blank lines part the entries; values can stand above or below the compound they belong to.

Key:
[1] = target: T1, catalytic core of a human recombinant Glepp-1 (Homo sapiens, UniProt Q16827); experiment: Glepp-1 PTP enzyme assay (DiFMUP dephosphorylation); assay type: biochemical; conditions: Glepp-1, DiFMUP substrate, 30 minutes at room temperature; read-out: Inhibition (IC50)
T1 construct: using the catalytic core of a human recombinant Glepp-1 as the enzyme; made in house
T1 sequence (Q16827 938-1195 limits assumed): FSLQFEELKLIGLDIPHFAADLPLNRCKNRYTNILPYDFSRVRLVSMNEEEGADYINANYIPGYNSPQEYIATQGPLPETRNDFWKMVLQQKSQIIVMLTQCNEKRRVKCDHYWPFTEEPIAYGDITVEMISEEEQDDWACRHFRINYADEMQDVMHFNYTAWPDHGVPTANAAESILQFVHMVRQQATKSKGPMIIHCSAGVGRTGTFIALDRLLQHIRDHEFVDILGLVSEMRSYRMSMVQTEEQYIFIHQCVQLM
Excerpt: The PTP Enzyme Assay aims at determining the extent of inhibition of Glepp-1 in the presence of a test compound. The inhibition is illustrated by IC50 values which denote the concentration of test compound necessary to achieve an inhibition of 50% of Glepp-1 using the following concentration of the Glepp-1 substrate DiFMUP:
The DiFMUP assay allows to follow the dephosphorylation of DiFMUP (6,8-DiFluoro-4-MethylUmbelliferyl Phosphate)—which is the Glepp-1 substrate—mediated by Glepp-1 into its stable hydrolysis product, i.e. DiFMU (6,8-difluoro-7-hydroxy coumarin). Due to its rather low pKa and its high quantum yield, DiFMU allows to measure both acidic and alkaline phosphatase activities with a great sensitivity.
Assays were performed in a 96 well plate format, using the catalytic core of a human recombinant Glepp-1 as the enzyme and 6,8-DiFluoro-4-MethylUmbelliferyl Phosphate (DiFMUP, Molecular Probes, D-6567) as a substrate. Compounds to be tested were dissolved in 100% DMSO at a concentration of 2 mM. Subsequent dilutions of the test compounds (to yield a concentration of 100, 30, 10, 3, 1, 0.3, 0.1, 0.03, 0.01, 0.001 μM) were performed in 60% DMSO manually. 8 μl of diluted compound or vehicle (60% DMSO=control) was distributed to a black Costar 96 well plate. 42 μl of human recombinant Glepp-1 enzyme diluted in assay buffer (20 mM Tris HCl pH 7.5, 0.01% IGEPAL CA-630, 0.1 mM ethylenediaminetetracetic acid, 1 mM DL-Dithiothreitol) can be added to the dilutions of compound or vehicle (distributed to a black Costar 96 well plate), followed by 50 μl of DiFMUP diluted in the assay buffer. The reaction ran for 30 minutes at room temperature before reading the fluorescence intensity (integral or intensity) on a Perkin-Elmer Victor 2 spectrofluorimeter (excitation of 6,8-difluoro-7-hydroxy coumarin is at 355 nm, the emission at 460 nm, for 0.1 s). The percentage of inhibition is determined by measuring the relative fluorescence ion absence of a test compound (PTP inhibitor), i.e. with the solvent alone (5% DMSO). The IC50 values for inhibition were determined in triplicates.

THP-1 cells = experiment: In vitro chemotaxis, MCP-1-induced, THP1 cells (transwell); assay type: cell-based; conditions: Homo sapiens, MCP-1/CCL2 in lower chamber, 3 hours, read-out: block chemotaxis, EC50
Excerpt: The compounds of Formula (I), (II), (III), (IV), (V), (VI) and (VII), may be subjected to the following assays: • (1) Glepp-1 binding assay (in vitro) • (2) In vitro assay(s): Cell functional effect. Effect on MCP-1-induced chemotaxis on THP-1 cells • (3) Lymphocyte recruitment by thioglycollate (in vivo model for inflammation) • (4) Collagen induced arthritis (CIA) in mice (in vivo model for inflammation) • (5) Contact hypersensitivity (CHS is a T cell-mediated model of skin inflammation) • (6) EAE (in vivo model for MS) • (7) Ulcerative colitis
The assay was performed as follows: After starvation of THP1 cells in serum free medium for 3 hours, 10^7 cells/ml in medium containing 0.5% BSA, and inhibitors, when indicated. 100 μl of cells were applied to the top chamber (5 μm pore size transwell plates, COSTAR, New York) and 6001 of medium containing MCP-1/CCL2, in the absence or presence of test compounds, were added to the lower chamber. After incubation at 37° C. and 5% of CO2 for 3 hours, cells that passed through the membrane were collected and counted in a Beckman Coulter® AcT 5Diff™.

Balb/c mice = experiment: Dextran Sodium Sulfate-induced ulcerative colitis in mice; assay type: in vivo; conditions: for body weight loss: po
Procedure: Ulcerative colitis (UC) was induced in female mice (Balb/c, 20-22 g, Elevage Janvier) by Dextran Sodium Sulfate (DSS 4%) administered in drinking water. The mice had free access to DSS during 7 days. Body weight was determined daily. The severity of the UC was assessed by a clinical score (range 0 to 4) estimating the constituency of the stool (0=firm, 1=loose, 2=diarrhea) and the presence of blood (0=no blood, 1=occult blood, 2=gross rectal bleeding). Seven days after the induction of the disease, the animals were sacrificed. The length and the weight of the colon were determined and the ratio Weight/Length/100 g body weight was calculated. The spleen weight was also determined.
Compound of the invention (10, 30 & 100 mg/kg, po) was suspended in 0.5% methocel/0.25% tween 20 and was administered twice daily at days 3, 4, 5 and 6 after the induction of the UC. Sulfasalazine (200 mg/kg, po) was used as reference compound.

[2] = 10 mg/kg po twice daily days 3-6, versus vehicle treated group
[3] = 30 mg/kg po twice daily days 3-6, versus vehicle treated group
[4] = 100 mg/kg po twice daily days 3-6, versus vehicle treated group

- IC50 [1]: < 1000 nM
SMILES: CCCCCCCCNC(=O)c1ccc(-c2nc(CN(Cc3ccc(OCC(=O)O)cc3)C(=O)CCc3ccccc3)cs2)cc1 [(4-{[[(2-{4-[(octylamino)carbonyl]phenyl}-1,3-thiazol-4-yl)methyl](3-phenylpropanoyl)amino]methyl}phenoxy)acetic acid]

- IC50 [1]: < 1000 nM
SMILES: CCCCCCCCC#Cc1ccc(CN(C(=O)/C=C/c2cccc(C(F)(F)F)c2)c2ccc(O)c(C(=O)O)c2)cc1 [5-((4-dec-1-ynylbenzyl){(2E)-3-[3-(trifluoromethyl)phenyl]prop-2-enoyl}amino)-2-hydroxybenzoic acid]

- IC50 [1]: < 1000 nM
- EC50 (THP-1 cells): 1 to 15 µM
SMILES: CCCCCCc1ccc(C#Cc2ccc(CN(Cc3ccc(C(F)(F)F)cc3)C(=O)C(=O)O)cc2)cc1 [{{4-[(4-hexylphenyl)ethynyl]benzyl}[4-(trifluoromethyl)benzyl]amino}-(oxo)acetic acid]

SMILES: CCCCCCN(Cc1ccc(C#Cc2ccc(CCCC)cc2)cc1)C(=O)c1ccc(O)c(C(=O)O)c1 [5-{[{4-[(4-butylphenyl)ethynyl]benzyl}(hexyl)amino]carbonyl}-2-hydroxybenzoic acid]
- IC50 [1]: < 1000 nM
- EC50 (THP-1 cells): 1 to 15 µM

SMILES: CCCCCCN(Cc1ccc(C#Cc2ccc(CCCC)cc2)cc1)c1ccc(O)c(C(=O)O)c1 [5-[{4-[(4-butylphenyl)ethynyl]benzyl}(hexyl)amino]-2-hydroxybenzoic acid]
- IC50 [1]: < 1000 nM
- colon reduction, estimated by the Weight/Length ratio (Balb/c mice; [2]): −22%
- colon reduction, estimated by the Weight/Length ratio (Balb/c mice; [3]): −28%
- splenomegaly reduced (Balb/c mice; [3]): −31%
- colon reduction, estimated by the Weight/Length ratio (Balb/c mice; [4]): −35%
- splenomegaly reduced (Balb/c mice; [4]): −65%
- body weight loss (Balb/c mice; 10, 30 & 100 mg/kg): prevented
- EC50 (THP-1 cells): 1 to 15 µM

- IC50 [1]: < 1000 nM
SMILES: N#Cc1ccc(C(=O)Nc2ccc(C(=O)N/N=C3\C(=O)Nc4ccc(I)cc43)cc2)cc1 [4-cyano-N-(4-{[(2Z)-2-(5-iodo-2-oxo-1,2-dihydro-3H-indol-3-ylidene)hydrazino]carbonyl}phenyl)benzamide]

SMILES: CCCCCCN(Cc1ccccc1C#Cc1ccc(CCCC)cc1)C(=O)c1ccc(O)c(C(=O)O)c1 [5-{[{2-[(4-butylphenyl)ethynyl]benzyl}(hexyl)amino]carbonyl}-2-hydroxybenzoic acid]
- colon reduction, estimated by the Weight/Length ratio (Balb/c mice; [2]): −47%
- splenomegaly reduced (Balb/c mice; [2]): −25%
- colon reduction, estimated by the Weight/Length ratio (Balb/c mice; [3]): −50%
- splenomegaly reduced (Balb/c mice; [3]): −45%
- body weight loss (Balb/c mice; 10 & 30 mg/kg): prevented

- IC50 [1]: < 1000 nM
SMILES: O=C1NN(c2ccc(I)cc2)C(=O)/C1=C/c1ccc(Br)o1 [(4E)-4-[(5-bromo-2-furyl)methylene]-1-(4-iodophenyl)pyrazolidine-3,5-dione]
